Assay results: ChEMBL document CHEMBL1201862, “PubChem BioAssay data set” (2004)
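Five concentrations, 48 hours, 96-well plates. The concentration for 50% growth inhibition is given as GI50.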 The source made the active and inactive calls. No stated cut-off is given here; in the data, active = GI50 up to about 1.1 µM and inactive = higher.

Experiments:
Test in all cases: NCI tumour cell line growth inhibition, 48 h
A498 = test system: A498
RXF 393 = test system: RXF 393
T47D = test system: T47D
K562 = test system: K562
UO-31 = test system: UO-31
UACC-257 = test system: UACC-257
KM12 = test system: KM12
SK-MEL-2 = test system: SK-MEL-2
SNB-19 = test system: SNB-19
PC-3 = test system: PC-3
SK-MEL-5 = test system: SK-MEL-5
NCI-H226 = test system: NCI-H226
ACHN = test system: ACHN
NCI-H460 = test system: NCI-H460
CAKI-1 = test system: CAKI-1
HCC 2998 = test system: HCC 2998
SR = test system: SR
HOP-62 = test system: HOP-62
LOX IMVI = test system: LOX IMVI
Hs-578T = test system: Hs-578T
COLO 205 = test system: COLO 205
SW-620 = test system: SW-620
OVCAR-5 = test system: OVCAR-5
EKVX = test system: EKVX
HL-60 = test system: HL-60
NCI-H23 = test system: NCI-H23
OVCAR-8 = test system: OVCAR-8
NCI/ADR-RES = test system: NCI/ADR-RES
MDA-MB-231 = test system: MDA-MB-231
Malme-3M = test system: Malme-3M
SK-OV-3 = test system: SK-OV-3
IGROV-1 = test system: IGROV-1
RPMI-8226 = test system: RPMI-8226
CCRF-CEM = test system: CCRF-CEM
MDA-MB-435 = test system: MDA-MB-435
OVCAR-3 = test system: OVCAR-3
SN12C = test system: SN12C
NCI-H522 = test system: NCI-H522
MCF7 = test system: MCF7
A549 = test system: A549
BT-549 = test system: BT-549
U-251 = test system: U-251
HT-29 = test system: HT-29
TK-10 = test system: TK-10
SF-268 = test system: SF-268
DU-145 = test system: DU-145
SF-539 = test system: SF-539
M14 = test system: M14
HCT-116 = test system: HCT-116
HOP-92 = test system: HOP-92
SK-MEL-28 = test system: SK-MEL-28
UACC-62 = test system: UACC-62
786-0 = test system: 786-0
HCT-15 = test system: HCT-15

CCCCC/N=C/c1c(O)c(O)c(C(C)C)c2cc(C)c(-c3c(C)cc4c(C(C)C)c(O)c(O)c(/C=N/CCCCC)c4c3O)c(O)c12
GI50 (A498): 27.3 µM (inactive)
GI50 (RXF 393): 11.2 µM (inactive)
GI50 (T47D): 3.98 µM (inactive)
GI50 (K562): 4.25 µM (inactive)
GI50 (UO-31): 7.13 µM (inactive)
GI50 (UACC-257): 15.6 µM (inactive)
GI50 (KM12): 4.7 µM (inactive)
GI50 (SK-MEL-2): 14 µM (inactive)
GI50 (SNB-19): 3.78 µM (inactive)
GI50 (PC-3): 5.35 µM (inactive)
GI50 (SK-MEL-5): 6.3 µM (inactive)
GI50 (NCI-H226): 23 µM (inactive)
GI50 (ACHN): 3.59 µM (inactive)
GI50 (NCI-H460): 5.65 µM (inactive)
GI50 (CAKI-1): 18 µM (inactive)
GI50 (HCC 2998): 10.7 µM (inactive)
GI50 (SR): 4.24 µM (inactive)
GI50 (HOP-62): 15.3 µM (inactive)
GI50 (LOX IMVI): 3.52 µM (inactive)
GI50 (Hs-578T): 17.2 µM (inactive)
GI50 (COLO 205): 2.75 µM (inactive)
GI50 (SW-620): 6.97 µM (inactive)
GI50 (OVCAR-5): 19 µM (inactive)
GI50 (EKVX): 7.96 µM (inactive)
GI50 (HL-60): 3.94 µM (inactive)
GI50 (NCI-H23): 12 µM (inactive)
GI50 (OVCAR-8): 7.4 µM (inactive)
GI50 (NCI/ADR-RES): 27.1 µM (inactive)
GI50 (MDA-MB-231): 7.43 µM (inactive)
GI50 (Malme-3M): 12.7 µM (inactive)
GI50 (SK-OV-3): 7.06 µM (inactive)
GI50 (IGROV-1): 9.98 µM (inactive)
GI50 (RPMI-8226): 8.26 µM (inactive)
GI50 (CCRF-CEM): 25.2 µM (inactive)
GI50 (MDA-MB-435): 6.3 µM (inactive)
GI50 (OVCAR-3): 5.28 µM (inactive)
GI50 (SN12C): 7.94 µM (inactive)
GI50 (NCI-H522): 5.05 µM (inactive)
GI50 (MCF7): 4.81 µM (inactive)
GI50 (A549): 5.58 µM (inactive)
GI50 (BT-549): 7.87 µM (inactive)
GI50 (U-251): 3.06 µM (inactive)
GI50 (HT-29): 2.88 µM (inactive)
GI50 (TK-10): 15 µM (inactive)
GI50 (SF-268): 6.5 µM (inactive)
GI50 (DU-145): 19.5 µM (inactive)
GI50 (SF-539): 6.08 µM (inactive)
GI50 (M14): 38.1 µM (inactive)
GI50 (HCT-116): 11 µM (inactive)
GI50 (HOP-92): 3.73 µM (inactive)
GI50 (SK-MEL-28): 6.19 µM (inactive)
GI50 (UACC-62): 7.03 µM (inactive)
GI50 (786-0): 11.8 µM (inactive)
GI50 (HCT-15): 5.85 µM
